Here are results for 22 compounds from US9938256B2, “Annelated benzamides” (Boehringer Ingelheim International GmbH, priority 2015, dated 2018).

One may read the IC50 as the concentration needed to halve the response being measured. A lower IC50 goes with inhibition by little substance.

SMILES strings stand for the structures.

The target of this assay is T1, ENaC (Epithelial Sodium Channel) (Mus musculus, UniProt Q61180+Q9WU38+Q9WU39).
T1 sequence (Q61180 1-699): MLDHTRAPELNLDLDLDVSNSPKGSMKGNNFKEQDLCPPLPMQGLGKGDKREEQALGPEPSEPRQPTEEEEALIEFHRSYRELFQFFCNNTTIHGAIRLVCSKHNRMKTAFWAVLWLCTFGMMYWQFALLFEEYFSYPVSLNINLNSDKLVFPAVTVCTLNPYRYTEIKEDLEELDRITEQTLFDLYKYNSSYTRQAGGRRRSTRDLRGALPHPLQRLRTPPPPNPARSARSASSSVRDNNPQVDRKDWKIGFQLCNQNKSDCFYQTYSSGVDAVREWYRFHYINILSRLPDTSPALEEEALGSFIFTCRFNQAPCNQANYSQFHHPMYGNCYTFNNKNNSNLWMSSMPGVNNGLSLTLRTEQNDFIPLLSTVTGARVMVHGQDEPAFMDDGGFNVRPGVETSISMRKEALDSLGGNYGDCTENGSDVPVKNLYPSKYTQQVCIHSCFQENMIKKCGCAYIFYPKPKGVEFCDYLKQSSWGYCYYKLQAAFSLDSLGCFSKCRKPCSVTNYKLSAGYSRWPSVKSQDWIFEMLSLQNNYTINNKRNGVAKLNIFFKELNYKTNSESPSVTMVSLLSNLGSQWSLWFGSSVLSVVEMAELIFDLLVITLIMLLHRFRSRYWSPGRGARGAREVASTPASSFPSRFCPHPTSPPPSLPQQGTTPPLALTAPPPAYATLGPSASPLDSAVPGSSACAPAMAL
T1 sequence (Q9WU38 1-638): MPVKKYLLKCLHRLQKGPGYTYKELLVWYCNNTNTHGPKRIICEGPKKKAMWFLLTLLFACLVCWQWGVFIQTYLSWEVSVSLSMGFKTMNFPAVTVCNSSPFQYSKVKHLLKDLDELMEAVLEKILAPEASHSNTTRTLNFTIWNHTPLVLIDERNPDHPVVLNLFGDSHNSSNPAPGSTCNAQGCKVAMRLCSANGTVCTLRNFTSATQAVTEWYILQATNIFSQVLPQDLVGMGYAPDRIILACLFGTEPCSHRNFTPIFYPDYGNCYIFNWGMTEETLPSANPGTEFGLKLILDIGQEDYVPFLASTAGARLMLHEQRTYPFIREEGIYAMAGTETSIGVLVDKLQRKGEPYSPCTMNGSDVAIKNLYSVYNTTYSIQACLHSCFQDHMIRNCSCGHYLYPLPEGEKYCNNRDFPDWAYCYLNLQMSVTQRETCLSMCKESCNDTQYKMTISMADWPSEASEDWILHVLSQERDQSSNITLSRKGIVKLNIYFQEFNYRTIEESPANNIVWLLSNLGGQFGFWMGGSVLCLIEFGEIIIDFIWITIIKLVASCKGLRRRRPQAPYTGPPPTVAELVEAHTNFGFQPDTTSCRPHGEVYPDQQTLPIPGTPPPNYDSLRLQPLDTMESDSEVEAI
T1 sequence (Q9WU39 1-655): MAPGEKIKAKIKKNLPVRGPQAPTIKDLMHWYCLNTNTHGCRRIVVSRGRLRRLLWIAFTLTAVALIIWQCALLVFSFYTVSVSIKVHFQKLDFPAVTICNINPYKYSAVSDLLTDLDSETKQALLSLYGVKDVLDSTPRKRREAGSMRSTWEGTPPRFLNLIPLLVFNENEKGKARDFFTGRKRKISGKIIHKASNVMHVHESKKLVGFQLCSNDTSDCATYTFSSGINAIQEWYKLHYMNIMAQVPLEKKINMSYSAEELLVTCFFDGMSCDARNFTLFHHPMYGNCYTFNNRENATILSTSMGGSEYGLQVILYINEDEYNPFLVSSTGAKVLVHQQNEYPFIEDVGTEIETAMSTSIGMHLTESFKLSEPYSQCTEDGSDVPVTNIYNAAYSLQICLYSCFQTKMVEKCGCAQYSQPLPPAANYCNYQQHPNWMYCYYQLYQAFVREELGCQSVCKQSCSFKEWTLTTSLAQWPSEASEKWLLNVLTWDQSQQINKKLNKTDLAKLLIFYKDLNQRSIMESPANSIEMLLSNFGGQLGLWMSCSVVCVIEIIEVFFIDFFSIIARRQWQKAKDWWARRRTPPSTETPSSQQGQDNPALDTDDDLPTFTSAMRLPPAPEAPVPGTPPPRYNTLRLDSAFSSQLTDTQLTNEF
As to the kind of experiment: Ussing Chamber assay (amiloride sensitive short circuit current in M-1 cells). It is filed as cell-based. Conditions: Mouse kidney M-1 cells, apical administration, 37° C. How it is done:
The IC50 values of the example compounds given above were determined in the Ussing Chamber assay. Ussing Chamber: Mouse kidney M-1 cells were cultivated in DMEM containing 5% FCS and 5 μM dexamethasone for 10 to 12 days on polyester transwell filters. Filters were inserted into a teflon-coated well-plate which fit into the ussing chamber system. Prior to measurement the medium of M-1 cells was replaced with Caco-2 transport buffer (Invitrogen, Germany). During measurements, the Ussing chamber temperature was kept at 37° C. Short circuit currents (I_sc) were measured in the voltage-clamp mode with the software package Lab View for data acquisition and analysis. The transepithelial electrical resistance (TEER) was determined by the application of voltage steps of ±5 mV every 5 sec. Compounds were administered at a final concentration of 3 μM or at increasing concentrations (1-3-10 μM) to the apical solution. At the end of each experiment the amiloride sensitive I_SC was measured by adding 3 μM amiloride to the apical compartment. Results are expressed as inhibition in percent of the amiloride effect or as IC50. With the example compounds given above, the following IC50 values were determined in the Ussing Chamber assay: […]
The compound `CCn1c(CNC(=O)c2nc(Cl)cnc2N)[n+](CC)c2ccc(C(=O)N3CCNCC3)cc21` [Example 1.01] showed an IC50 of 7 nM.

Take `CCn1c(CNC(=O)c2nc(Cl)cnc2N)[n+](CC)c2ccc(C(=O)N(C)CCCNC)cc21` [Example 1.02]: the IC50 is 4 nM. The result for `CCn1c(CNC(=O)c2nc(Cl)cnc2N)[n+](CC)c2ccc(C(=O)NCCN3CCOCC3)cc21` [Example 1.03] reads 7 nM; that for `CCn1c(CNC(=O)c2nc(Cl)cnc2N)[n+](CC)c2ccc(C(=O)NCCCNC)cc21` [Example 1.04], 3 nM; that for `CCn1c(CNC(=O)c2nc(Cl)cnc2N)[n+](CC)c2ccc(C(=O)N(CCN)CC(C)C)cc21` [Example 1.05], 8 nM. As to `CCn1c(CNC(=O)c2nc(Cl)cnc2N)[n+](CC)c2ccc(C(=O)NCCN(C)C)cc21` [Example 1.06], it took 4 nM to reach half-maximal inhibition (IC50). Against the preceding compound, the IC50 is about 2-fold lower. The result for `CCn1c(CNC(=O)c2nc(Cl)cnc2N)[n+](CC)c2ccc(C(=O)N3CCN(C)CC3)cc21` [Example 1.07] reads 5 nM. Regarding `CCn1c(CNC(=O)c2nc(Cl)cnc2N)[n+](CC)c2ccc(C(=O)NCCNC)cc21` [Example 1.08], the IC50 stood at 6 nM. The result for `CCn1c(CNC(=O)c2nc(Cl)cnc2N)[n+](CC)c2ccc(C(=O)NC[C@H](O)[C@@H](O)[C@H](O)[C@H](O)CO)cc21` [Example 1.09] reads 6 nM; that for `CCn1c(CNC(=O)c2nc(Cl)cnc2N)[n+](CC)c2ccc(C(=O)NCCCN)cc21` [Example 1.10], 4 nM.

`CCn1c(CNC(=O)c2nc(Cl)cnc2N)[n+](CC)c2ccc(C(=O)N3CCC(NC(=O)CN(C)C)CC3)cc21` [Example 1.11] yielded an IC50 of 5 nM. Regarding `CCn1c(CNC(=O)c2nc(Cl)cnc2N)[n+](CC)c2cc(C(=O)N3CCC(N(C)C)CC3)ccc21` [Example 1.12], the IC50 stood at 4 nM. The result for `CCn1c(CNC(=O)c2nc(Cl)cnc2N)[n+](CC)c2ccc(C(=O)N(CCN)CCN)cc21` [Example 1.13] reads 7 nM; that for `CCn1c(CNC(=O)c2nc(Cl)cnc2N)[n+](CC)c2ccc(C(=O)N(C)CCNC)cc21` [Example 1.14], 4 nM. The result for `CCn1c(CNC(=O)c2nc(Cl)cnc2N)[n+](CC)c2ccc(C(=O)N(C)CCN3CCOCC3)cc21` [Example 1.15] reads 6 nM; that for `CCn1c(CNC(=O)c2nc(Cl)cnc2N)[n+](CC)c2cc(C(=O)N3CCN(CP(C)(C)=O)CC3)ccc21` [Example 1.16], 12 nM; that for `CCn1c(CNC(=O)c2nc(Cl)cnc2N)[n+](CC)c2ccc(C(=O)N(C)CCCN(C)C)cc21` [Example 1.17], 7 nM.

The compound `CCCCN1CCN(C(=O)c2ccc3c(c2)[n+](CC)c(CNC(=O)c2nc(Cl)cnc2N)n3CC)CC1` [Example 1.18] registered an IC50 of 5 nM.

Regarding `CCn1c(CNC(=O)c2nc(Cl)cnc2N)[n+](CC)c2ccc(C(=O)N3CCCNCC3)cc21` [Example 1.19], the IC50 was 4 nM. For the compound `CCn1c(CNC(=O)c2nc(Cl)cnc2N)[n+](CC)c2ccc(C(=O)N(C)CCN(C)C)cc21` [Example 1.20], 6 nM corresponded to half-maximal inhibition (IC50). Under `CCn1c(CNC(=O)c2nc(Cl)cnc2N)[n+](CC)c2ccc(C(=O)N3CCC(NC(=O)CN)CC3)cc21` [Example 1.21] stands 5 nM. Take `CCn1c(CNC(=O)c2nc(Cl)cnc2N)[n+](CC)c2cc(C(=O)NCCOCP(C)(C)=O)ccc21` [Example 1.22]: it took 13 nM to reach half-maximal inhibition (IC50).
